According to PMC3374801, “Artemisinin Inhibits Chloroplast Electron Transport Activity: Mode of Action” (PLoS ONE, 2012):
Entries after “also recorded” stand apart in the source; their conditions may differ.

Key:
[1] = test system: rice leaves; test: Fast Chl. a (O-J-I-P) fluorescence transient in leaves of artemisinin sprayed plants; format: in vivo, Rice (Oryza sativa var. Safari)
Protocol: (§1) Twenty one day old rice plants were sprayed with artemisinin twice at a 24 h interval. One mililiter of 74.4 mM artemisinin in 1% (V/V) DMSO, 0.1% (V/V) TWEEN-20 was diluted 100 fold with water and used to treat 40 plants (∼1.86 µmol of artemisinin/plant). Control plants were sprayed with the same solution without artemisinin. The 4th (quaternary) leaf was harvested 20 h after the 2nd spray and used for all experiments. The individual effect of the surfactant and DMSO-plus-surfactant was first evaluated against water control. Since no effect was obtained with these variations, we have routinely used the DMSO plus the surfactant sprayed leaves as control against artemisinin treated leaves and in figures the same has been depicted as DMSO (control). The room temperature Chl. a fluorescence technique was used to study the photosynthetic activity in intact leaf samples. The fast Chl. a transients (O-J-I-P) in millisecond (ms) time span was studied with plant efficiency analyzer (Handy PEA fluorimeter) following Strasser et al., while the relative thylakoid electron transport, membrane energization and carbon fixation activities were evaluated from slow fluorescence transients, obtained using FMS2 instrument (Hansatech) as per the detail outlined in Baker. The readouts from Handy PEA were analyzed using biolyzerhp3 software.

[2] = test system: PSI; test: PSI (DCIPH2 to MV) catalyzed electron flow in thylakoids isolated from leaves of sprayed plants; format: in vivo, Rice (Oryza sativa var. Safari); settings: thylakoids of treated rice leaves
Protocol: (§2) Twenty one day old rice plants were sprayed with artemisinin twice at a 24 h interval. One mililiter of 74.4 mM artemisinin in 1% (V/V) DMSO, 0.1% (V/V) TWEEN-20 was diluted 100 fold with water and used to treat 40 plants (∼1.86 µmol of artemisinin/plant). Control plants were sprayed with the same solution without artemisinin. The 4th (quaternary) leaf was harvested 20 h after the 2nd spray and used for all experiments. The individual effect of the surfactant and DMSO-plus-surfactant was first evaluated against water control. […]
(§3) Thylakoids were isolated from spinach and rice leaves following with some modifications. […] Chlorophyll concentration in methanolic extract was measured spectrophotometrically.
(§4) Photosystem II, PSI and whole chain (PSII plus PSI) catalyzed electron transport activities were measured as oxygen (O2) evolution or uptake in a Clarke type O2 electrode assembly (Hansatech) at 22±1°C using site-specific artificial electron acceptors, donors, and inhibitors, [26]. […] Phosphorylating electron transport was measured with addition of 1 mM ADP and 5 mM K2HPO4 (iP) to basal electron transport components (25 mM hepes-NaOH (pH-7.5), 100 mM sucrose, 5 mM MgCl2 and 20 µg Chl. ml^−1). […]

[3] = test system: lettuce, redroot pigweed, pitted morning glory, annual wormwood and common purslane; design: method as in earlier work; settings: 33 µM; cited from earlier work
[4] = test system: lettuce and annual wormwood; design: method as in earlier work; settings: 33 µM; cited from earlier work
[5] = molecular target: T1, PSII (Oryza sativa subsp. japonica, UniProt P0C434); test: PSII (H2O to pBQ) catalyzed electron flow in thylakoids isolated from leaves of sprayed plants; format: in vivo, Rice (Oryza sativa var. Safari); settings: thylakoids of treated rice leaves
T1 construct: Thylakoids were isolated from spinach and rice leaves; from tissue; host or cells: thylakoid membranes from the 4th leaf of 21-day-old rice plants
Protocol: as §2, §3, §4

[6] = test system: Chl. pigment synthesis; test: Chlorophyll quantification in sprayed plants; format: in vivo, Rice (Oryza sativa var. Safari); settings: treated versus control leaves
Protocol: Twenty one day old rice plants were sprayed with artemisinin twice at a 24 h interval. One mililiter of 74.4 mM artemisinin in 1% (V/V) DMSO, 0.1% (V/V) TWEEN-20 was diluted 100 fold with water and used to treat 40 plants (∼1.86 µmol of artemisinin/plant). Control plants were sprayed with the same solution without artemisinin. The 4th (quaternary) leaf was harvested 20 h after the 2nd spray and used for all experiments. The individual effect of the surfactant and DMSO-plus-surfactant was first evaluated against water control. Since no effect was obtained with these variations, we have routinely used the DMSO plus the surfactant sprayed leaves as control against artemisinin treated leaves and in figures the same has been depicted as DMSO (control). Thylakoids were isolated from spinach and rice leaves following with some modifications. Leaves were homogenized in cold grinding buffer [50 mM tricine-NaOH (pH 7.5), 400 mM sucrose, 5 mM MgCl2 and 5 mM KCl]. The homogenate was filtered through Miracloth and the filtrate was centrifuged at 5000×g for 5 min. […] Chlorophyll concentration in methanolic extract was measured spectrophotometrically. Supplementary file pone.0038942.s002.doc: Figure S2 Chlorophyll quantification in plants sprayed with DMSO and artemisinin. […]

[7] = test system: whole chain (H2O to FeCN) electron flow in thylakoids; test: Whole chain (H2O to FeCN) electron flow in thylakoids isolated from leaves of sprayed plants; format: in vivo, Rice (Oryza sativa var. Safari)
Protocol: as §2, §3, §4

[8] = test system: rice plant; test: Long term effect of artemisinin administration to rice plant; format: in vivo; settings: 5 consecutive alternate day sprays
Protocol: Supplementary file pone.0038942.s005.doc: Figure S5 Long term effect of artemisinin administration to rice plant. The plants were treated with artemisinin for 5 consecutive alternate day sprays. […] (DOC) Click here for additional data file.

[9] = test system: rice leaves; test: Slow Chl. a fluorescence kinetics in leaves of artemisinin sprayed plants; format: in vivo, Rice (Oryza sativa var. Safari); settings: dark adapted 20 min
Protocol: as §1

[10] = test system: yeast cells; design: method as in PMID 16170412; settings: 80 µM; cited from earlier work
[11] = test system: spinach thylakoids; test: In vitro effect of artemisinin on FeCN supported O2 evolution (electron transport) of isolated thylakoids; format: biochemical, spinach (Beta palonga); settings: for artemisinin-mediated inhibition of electron transport: 744 µM
Protocol: Thylakoids were isolated from spinach and rice leaves following with some modifications. Leaves were homogenized in cold grinding buffer [50 mM tricine-NaOH (pH 7.5), 400 mM sucrose, 5 mM MgCl2 and 5 mM KCl]. The homogenate was filtered through Miracloth and the filtrate was centrifuged at 5000×g for 5 min. The chloroplast pellet was washed in 5 mM tricine-NaOH (pH 7.5) buffer containing, 400 mM sucrose and 2 mM MgCl2 and centrifuged at 300×g for 1 min. The supernatant was re-centrifuged at 5000×g for 5 min. The pellet (thylakoids) was finally taken up in a minimal volume of suspending buffer [20 mM tricine-NaOH (pH 7.5), 100 mM sucrose and 5 mM MgCl2]. Chlorophyll concentration in methanolic extract was measured spectrophotometrically.
Photosystem II, PSI and whole chain (PSII plus PSI) catalyzed electron transport activities were measured as oxygen (O2) evolution or uptake in a Clarke type O2 electrode assembly (Hansatech) at 22±1°C using site-specific artificial electron acceptors, donors, and inhibitors, [26]. The light was rate-saturating (500 µE m^−2 s^−1). Phosphorylating electron transport was measured with addition of 1 mM ADP and 5 mM K2HPO4 (iP) to basal electron transport components (25 mM hepes-NaOH (pH-7.5), 100 mM sucrose, 5 mM MgCl2 and 20 µg Chl. ml^−1). NH4Cl and GS were used at a final concentration of 5 mM and 10 µM respectively as and when required. The whole chain electron flow was assayed in presence of 2 mM FeCN as terminal electron acceptor of PSI. pBQ and DQ (400 µM) were used to measure PSII catalyzed electron flow. To measure PSI catalyzed electron flow, DCIPH2 (1 mM DCIP plus 2 mM ascorbate) was used as electron donor to cytochrome b6/f region and 1 mM MV as transient electron acceptor. The PSI reaction mixture additionally contained 2 mM sodium azide (catalase inhibitor) and 10 µM DCMU (PSII inhibitor).

[12] = test system: PQH2 pool (PSII catalyzed electron flow from water to DQ); test: Kinetics of DQ supported electron transport rate in thylakoids from treated leaves; format: in vivo; settings: control versus treated thylakoids
Protocol: as §2, §3, §4

C[C@@H]1CC[C@H]2[C@@H](C)C(=O)O[C@@H]3O[C@@]4(C)CC[C@@H]1[C@]32OO4 [Artemisinin]
effect on electron flow from water to QA ([1]; from DCMU (20 µM) sensitivity of the fluorescence induction curves): insensitive | effect on O-J-I-P fluorescence transient ([1]; leaves of sprayed rice plants): disappearance of the FI – FP transient | reduction of PSI catalyzed electron flow from DCIPH2 to MV as compared to control [2]: 10–15% | effect on growth of roots and shoots [3]: inhibited | effect on germination [4]: inhibited the germination | reduction in rate of pBQ supported PSII catalyzed electron transport [5]: 65–70% | effect on Chl. pigment synthesis (Chl. concentration) [6]: no affect on the Chl. pigment synthesis | reduction of FeCN supported whole chain electron transport rate as compared to control ([7]; thylakoids of treated rice leaves (~1.86 µmol/plant)): 80–85% | inhibitory affect in loosely coupled (basal) versus chemically uncoupled (NH4Cl or GS) thylakoids ([7]; thylakoids of treated rice leaves, FeCN as acceptor): persistent to a comparable extent | long term effect on plants [8]: death of plant; also recorded: complete death of the plants | Rfd (fluorescence decline ratio from 'p' to 't' level) [9]: 0.08±0.006 | effect on growth of yeast cells [10]: arrests the growth | inhibition of control activity (FeCN supported electron transport / O2 evolution) ([11]; 744 µM artemisinin, basal (loosely coupled) thylakoids, relative to DMSO control): 65–70% | artemisinin-mediated inhibition of electron transport ([11]; phosphorylating condition (plus ADP and iP)): 45–50% | artemisinin-mediated inhibition of electron transport ([11]; phosphorylating condition, in presence of NH4Cl): 15–20% | artemisinin-mediated inhibition of electron transport ([11]; phosphorylating condition, with GS): 20–25% | DQ supported electron transport rate, times higher in the absence of artemisinin [12]: 5 times
